In paper PMC12592400, “A unique inhibitor conformation selectively targets the DNA polymerase PolC of Gram-positive priority pathogens” (Nature Communications, 2025):
“And” between values parts separate entries of the source, which are not always exact repeats. Equal entries are not always repeated.

Assays:
E. coli Pol IIIα = target: T1, E. coli Pol IIIα (Escherichia coli, UniProt P10443); test: Real-time DNA primer extension assay; format: biochemical; set-up: key to rate of activity (slope of fluorescence intensity change over time): slope of fluorescence intensity change per second (made positive); conditions: for rate of activity (slope of fluorescence intensity change over time): Fig. 1f source data, E. coli PolIIIα; for IC50: Fig. 1f, n = 3, read-out: PolIIIα IC50
T1 construct: made in house
T1 sequence (P10443 whole entry): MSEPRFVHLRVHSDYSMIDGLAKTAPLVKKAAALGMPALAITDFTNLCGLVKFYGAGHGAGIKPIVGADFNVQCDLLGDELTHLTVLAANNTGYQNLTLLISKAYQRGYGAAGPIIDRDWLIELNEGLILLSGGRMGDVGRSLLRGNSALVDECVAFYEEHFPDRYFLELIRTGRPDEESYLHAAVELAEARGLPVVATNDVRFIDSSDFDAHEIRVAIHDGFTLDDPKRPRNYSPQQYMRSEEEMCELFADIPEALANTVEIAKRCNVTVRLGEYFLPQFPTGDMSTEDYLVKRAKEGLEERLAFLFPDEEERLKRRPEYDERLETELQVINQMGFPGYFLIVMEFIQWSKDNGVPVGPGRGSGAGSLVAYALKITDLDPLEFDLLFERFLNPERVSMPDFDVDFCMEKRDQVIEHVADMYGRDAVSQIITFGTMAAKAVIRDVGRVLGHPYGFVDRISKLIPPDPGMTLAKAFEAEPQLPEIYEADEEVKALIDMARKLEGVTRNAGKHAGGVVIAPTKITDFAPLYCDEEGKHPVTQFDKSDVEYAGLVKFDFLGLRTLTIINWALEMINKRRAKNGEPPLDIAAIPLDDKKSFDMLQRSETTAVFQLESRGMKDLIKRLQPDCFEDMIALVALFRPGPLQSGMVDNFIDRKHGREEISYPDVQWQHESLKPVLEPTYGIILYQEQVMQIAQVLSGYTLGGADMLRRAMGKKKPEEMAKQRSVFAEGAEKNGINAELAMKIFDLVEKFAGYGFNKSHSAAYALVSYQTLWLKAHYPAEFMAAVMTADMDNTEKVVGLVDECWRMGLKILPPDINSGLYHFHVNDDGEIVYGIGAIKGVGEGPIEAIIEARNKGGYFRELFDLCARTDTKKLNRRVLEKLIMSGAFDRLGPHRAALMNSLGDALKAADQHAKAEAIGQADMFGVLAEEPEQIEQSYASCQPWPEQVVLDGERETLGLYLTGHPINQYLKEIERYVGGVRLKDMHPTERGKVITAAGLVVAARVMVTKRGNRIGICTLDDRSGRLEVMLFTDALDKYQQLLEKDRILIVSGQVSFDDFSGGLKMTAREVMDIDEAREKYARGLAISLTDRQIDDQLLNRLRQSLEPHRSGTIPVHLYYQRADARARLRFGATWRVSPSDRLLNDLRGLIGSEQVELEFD
Description: DnaE from E. coli was purified as described before[33],[34].
(§1) Polymerase activity was monitored in real-time[31],[32] with a 42-nt long 5’ carboxyfluorescein-labelled DNA oligonucleotide template strand (DNASP8_42) annealed to a 30-nt primer oligonucleotide (oMU014). Polymerase activity in this assay is monitored by measuring fluorescence quenching of the labelled DNA template as a result of primer extension by PolC (for details see Supplementary Fig. 1b, c). Both primers were HPLC purified. Primer extension assays were performed in Reaction Buffer (see Gel-based polymerase and exonuclease assays) supplemented with 0.5 mg/mL BSA, 0.05% Tween20 and 25 uM of each dNTP (SRB) in 384-well Black Round Bottom plates (Corning 4514). The polymerase was diluted in the SRB and incubated for at least 5 min in the presence of inhibitor or solvent, with a final solvent concentration of 1%. The reaction was initiated by the addition of an equal volume of DNA substrate in SRB as described below. Fluorescence emission data was collected with a BMG Labtech PHERAstar FSX reader for 30 min at room temperature.
(§2) Compounds were dispensed with an Echo acoustic liquid handler (Beckman Coulter). All compounds were dissolved to 1 mM and 10 mM stocks in 100% DMSO and transferred to Echo LDV or PP source plates (Labcyte, Inc., CA), then dispensed to 384-well plates with a Labcyte Echo550 or Echo650 acoustic dispenser at volumes of 2.5 to 100 nL per well. […] A Mantis microfluidic liquid dispenser (Formulatrix) was used to dispense 5 µL polymerase and 5 µL substrate DNA (individually diluted in SRB) per well. […] The final concentration of DNA was 70 nM.
(§3) Data were analysed and standard error of the means (SEM) determined in Prism 8.4.2 and 10.2.3 (GraphPad). Raw time-course polymerase activity was plotted against time, with SEM of triplicates determined. The rate of activity (represented by signal quenching) was determined during the first 8 min (linear stage) by calculating the slope of fluorescence intensity change (converted to a positive value) over time (in seconds). The slopes were then normalized to percentage activity (%); per ‘replicate range’, 100% activity was defined as polymerase activity in the absence of inhibitor (polymerase control), and 0% activity was determined in the absence of polymerase (DNA signal; negative control). The SEM was determined between ‘replicate ranges’. The IC50 was determined using the dose-response (inhibition) nonlinear regression ‘[Inhibitor] vs. response (three parameters)’ without constraints.

[1] = target: exonuclease-inactivated E. faecium PolC (Exo^null, PolC^D431A+E433A) (Enterococcus faecium, UniProt A0A9X4B319, D429A/E431A); test: Real-time DNA primer extension assay; format: biochemical; conditions: for IC50: n = 3, ± SEM
Protocol: as §1, §2, §3

[2] = Fig. 1e source data, inhibitor 2.5 uM, replicates 1-3
[3] = Fig. 1e source data, inhibitor 4 uM, replicates 1-3
[4] = Fig. 1e source data, inhibitor 5.75 uM, replicates 1-3
[5] = Fig. 1e source data, inhibitor 8.75 uM, replicates 1-3
[6] = Fig. 1e source data, inhibitor 12.5 uM, replicates 1-3
[7] = Fig. 1e source data, inhibitor 20 uM, replicates 1-3
[8] = Fig. 1e source data, inhibitor 30 uM, replicates 1-3
[9] = Fig. 1e source data, inhibitor 45 uM, replicates 1-3
[10] = Fig. 1e source data, inhibitor 67.5 uM, replicates 1-3
[11] = Fig. 1e source data, inhibitor 100 uM, replicates 1-3
[12] = Fig. 4b source data, PolC (Exonull), inhibitor 1 uM
[13] = Fig. 4b source data, PolC (Exonull), inhibitor 1.75 uM
[14] = Fig. 4b source data, PolC (Exonull), inhibitor 2.5 uM
[15] = Fig. 4b source data, PolC (Exonull), inhibitor 4 uM
[16] = Fig. 4b source data, PolC (Exonull), inhibitor 5.75 uM
[17] = Fig. 4b source data, PolC (Exonull), inhibitor 8.8 uM
[18] = Fig. 4b source data, PolC (Exonull), inhibitor 20 uM
[19] = IC50, Fig. 1e, inhibitor 2.5-100 μM
[20] = IC50 PolC, Fig. 4b, wild-type PolC (exonuclease-inactivated), inhibitor up to 225 μM

O=c1[nH]c(NCc2ccc(Cl)c(Cl)c2)nc2ncn(CCN3CCOCC3)c12 [IBZ, N^2-(3,4-dichlorobenzyl)-7-(2-[1-morpholinyl]ethyl)guanine]
rate of activity (slope of fluorescence intensity change over time) (E. coli Pol IIIα; inhibitor 2.5 uM): 18.2 and 16.5 and 13.6 | rate of activity (slope of fluorescence intensity change over time) (E. coli Pol IIIα; inhibitor 4 uM): 15.9 and 17.9 and 15.0 | rate of activity (slope of fluorescence intensity change over time) (E. coli Pol IIIα; inhibitor 12.5 uM): 25.0 and 21.1 and 24.7 | rate of activity (slope of fluorescence intensity change over time) (E. coli Pol IIIα; inhibitor 20 uM): 29.3 and 21.9 and 23.5 | rate of activity (slope of fluorescence intensity change over time) (E. coli Pol IIIα; inhibitor 30 uM): 26.6 and 21.8 and 26.2 | rate of activity (slope of fluorescence intensity change over time) (E. coli Pol IIIα; inhibitor 45 uM): 27.8 and 27.6 and 30.0 | rate of activity (slope of fluorescence intensity change over time) (E. coli Pol IIIα; inhibitor 67.5 uM): 28.5 and 30.7 and 23.6 | rate of activity (slope of fluorescence intensity change over time) (E. coli Pol IIIα; inhibitor 100 uM): 31.4 and 35.8 and 26.7 | IC50 (E. coli Pol IIIα): > 100 µM | rate of activity (slope of fluorescence intensity change over time) [1, 2]: 31.9 and 18.7 and 16.2 | rate of activity (slope of fluorescence intensity change over time) [1, 3]: 28.6 and 14.0 | rate of activity (slope of fluorescence intensity change over time) [1, 4]: 24.9 and 15.1 and 11.5 | rate of activity (slope of fluorescence intensity change over time) [1, 5]: 19.6 and 9.9 and 9.1 | rate of activity (slope of fluorescence intensity change over time) [1, 6]: 18.4 and 12.8 and 8.3 | rate of activity (slope of fluorescence intensity change over time) [1, 7]: 8.2 and 4.7 | rate of activity (slope of fluorescence intensity change over time) [1, 8]: 9.1 and 5.5 and 3.7 | rate of activity (slope of fluorescence intensity change over time) [1, 9]: 6.8 and 2.9 and 1.6 | rate of activity (slope of fluorescence intensity change over time) [1, 10]: 4.7 and 1.7 and -0.348 | rate of activity (slope of fluorescence intensity change over time) [1, 11]: -0.9 and -0.439 and 1.4 | rate of activity (slope of fluorescence intensity change over time) [1, 12]: 34.5 and 33.9 and 33.6 | rate of activity (slope of fluorescence intensity change over time) [1, 13]: 31.8 and 30.8 | rate of activity (slope of fluorescence intensity change over time) [1, 14]: 27.4 and 24.3 | rate of activity (slope of fluorescence intensity change over time) [1, 15]: 19.3 and 20.4 | rate of activity (slope of fluorescence intensity change over time) [1, 16]: 12.7 and 13.8 | rate of activity (slope of fluorescence intensity change over time) [1, 17]: 8.9 and 8.1 and 9.9 | rate of activity (slope of fluorescence intensity change over time) [1, 18]: 4.0 and 3.7 and 2.8 | IC50 [1, 19]: 12.3 µM | IC50 [1, 20]: 4.7 ± 0.3 µM

O=c1[nH]c(NCc2ccc3c(c2)OC(F)(F)O3)nc2c(F)nn(CCO)c12 [ACX-801, 5-(((2,2-difluorobenzo[d][1,3]dioxol-5-yl)methyl)amino)-3-fluoro-1-(2-hydroxyethyl)-1,6-dihydro-7H-pyrazolo[4,3-d]pyrimidin-7-one]
rate of activity (slope of fluorescence intensity change over time) (E. coli Pol IIIα; inhibitor 2.5 uM): 16.3 and 12.4 and 15.4 | rate of activity (slope of fluorescence intensity change over time) (E. coli Pol IIIα; inhibitor 4 uM): 16.6 and 16.5 and 16.7 | rate of activity (slope of fluorescence intensity change over time) (E. coli Pol IIIα; inhibitor 12.5 uM): 21.1 and 17.1 and 17.2 | rate of activity (slope of fluorescence intensity change over time) (E. coli Pol IIIα; inhibitor 20 uM): 17.9 and 17.4 and 20.0 | rate of activity (slope of fluorescence intensity change over time) (E. coli Pol IIIα; inhibitor 30 uM): 18.5 and 16.7 and 17.5 | rate of activity (slope of fluorescence intensity change over time) (E. coli Pol IIIα; inhibitor 45 uM): 13.8 and 14.5 and 13.7 | rate of activity (slope of fluorescence intensity change over time) (E. coli Pol IIIα; inhibitor 67.5 uM): 17.1 and 17.3 and 12.6 | rate of activity (slope of fluorescence intensity change over time) (E. coli Pol IIIα; inhibitor 100 uM): 15.2 and 13.3 and 12.6 | IC50 (E. coli Pol IIIα): > 100 µM | rate of activity (slope of fluorescence intensity change over time) [1, 2]: 16.9 and 13.9 and 11.9 | rate of activity (slope of fluorescence intensity change over time) [1, 3]: 8.8 and 10.0 | rate of activity (slope of fluorescence intensity change over time) [1, 4]: 8.5 and 6.8 and 7.4 | rate of activity (slope of fluorescence intensity change over time) [1, 5]: 6.9 and 3.4 and 4.8 | rate of activity (slope of fluorescence intensity change over time) [1, 6]: 9.5 and 6.4 and 6.3 | rate of activity (slope of fluorescence intensity change over time) [1, 7]: 3.9 and 4.0 and 3.8 | rate of activity (slope of fluorescence intensity change over time) [1, 8]: 1.2 (2×) and 2.5 | rate of activity (slope of fluorescence intensity change over time) [1, 9]: 0.4 and -0.11 and -1.5 | rate of activity (slope of fluorescence intensity change over time) [1, 10]: -0.534 and -0.6 and -2.3 | rate of activity (slope of fluorescence intensity change over time) [1, 11]: -1.1 and -0.9 and -1.0 | rate of activity (slope of fluorescence intensity change over time) [1, 12]: 39.9 and 41.9 | rate of activity (slope of fluorescence intensity change over time) [1, 13]: 37.2 and 42.3 and 40.2 | rate of activity (slope of fluorescence intensity change over time) [1, 14]: 36.3 and 36.1 | rate of activity (slope of fluorescence intensity change over time) [1, 15]: 30.8 and 32.5 and 32.0 | rate of activity (slope of fluorescence intensity change over time) [1, 16]: 23.4 and 22.7 and 23.0 | rate of activity (slope of fluorescence intensity change over time) [1, 17]: 23.6 and 23.3 and 21.3 | rate of activity (slope of fluorescence intensity change over time) [1, 18]: 11.8 and 10.7 and 11.9 | rate of activity (slope of fluorescence intensity change over time) ([1]; Fig. 4b source data, PolC (Exonull), inhibitor 30 uM): 6.7 and 7.0 and 4.9 | IC50 [1, 19]: 5.8 µM | IC50 [1, 20]: 11.7 ± 1.1 µM
